# Experimental data taken from BindingDB's records for doi:10.1021/jm00167a032 (Sankyo, 1990).
# Biological target: Arachidonate 5-lipoxygenase (Cavia porcellus)
# Assay: Evaluated for inhibition of the formation and release of 5-lipoxygenase in guinea pig peritoneal PMNL
row,SMILES,IC50 [nM]
1,Cc1c(C)c2c(c(C)c1O)SCO2,290
2,Cc1c(C)c2c(c(C)c1O)SC(c1ccccc1)O2 (stereo unspecified),71
3,CCCCC1Oc2c(C)c(C)c(O)c(C)c2S1 (stereo unspecified),59
4,CCCC1Oc2c(C)c(C)c(O)c(C)c2S1 (stereo unspecified),25

# More lines, in order of falling IC50, values ahead:
row,IC50 [nM],SMILES
1,520,Cc1c(C)c2c(c(C)c1O)SC(CCC(N)=O)O2 (stereo unspecified)
2,220,CCCCCCCC1Oc2c(C)c(C)c(O)c(C)c2S1 (stereo unspecified)
